Laboratory results: US20250134855A1, “CO[…] AND METHODS OF USING SAME” (LYKOS THERAPEUTICS, INC., priority 2022, published 2025)
Like-named read-outs stand apart in the source and are kept apart here.

Test: Study MPKF: plasma pharmacokinetics of MDMA and MDA, single 120 mg MDMA·HCl, fasted/fed
Type: in vivo, human
Conditions: for Tmax: median
From the text: The MPKF was a Phase 1, open-label, randomized sequence, multi-dose, 2-period crossover food effect study in 16 healthy individuals. The MPKF study evaluated plasma concentrations of both MDMA and the active metabolite 3,4-methylenedioxyamphetamine (MDA). Summary PK Parameters of the preliminary data was based on interim analysis are presented in Table 12 Table 12 Table 12, and Table 13 Table 13 Table 13 for MDMA and MDA, respectively.
Participants were randomized to receive 1 of 2 conditions before the other: • Fasted Treatment: at least 10 hours of fasting followed by administration of MDMA HCl with 240 mL water. • Fed Treatment: at least 10 hours of fasting followed by a high-fat (approximately 50% of total caloric content of the meal) and high-calorie (approximately 800 to 1000 calories) meal was consumed within 30 minutes prior to IMP administration.
Participants remained at the clinical research unit (CRU) for each Dosing Session from the time of check-in on the night before dosing until discharge 48 hours after dosing for collection of serial blood samples for PK analysis and safety monitoring. IMP was administered on Day 1 following the treatment sequence to which the participant was randomized. An additional outpatient visit occurred 72 hours after dosing to collect a final PK sample, commensurate with the expected PK profiles of MDMA and MDA. Safety assessments were also performed at this visit.
The washout period between Dosing Sessions was at least 14 days. If a participant experienced emesis within 4 hours of administration, they were to be withdrawn from the study and replaced with a new participant. An End of Study Visit was performed 2 to 10 days after the completion of the final Dosing Session 72-hour follow-up. An informal interim analysis was planned to be conducted after at least 5 participants completed at least 1 Dosing Session to examine PK variability.
The API was a white crystalline powder of pharmaceutical quality, made according to current Good Manufacturing Practices (cGMP) for human use.
Participants: Sixteen healthy individuals were recruited for the study.
Intervention: The study was conducted as a Phase 1, open-label, randomized sequence, multi-dose, 2-period crossover food effect study. Each participant received multiple doses of MDMA, and plasma concentrations of both MDMA and the active metabolite MDA were measured.
Sample Collection: Blood samples were collected at various time points up to 72 hours after dosing. The samples were analyzed using validated liquid chromatography-tandem mass spectrometry (LC-MS/MS) methods.
Data Analysis: The summary PK parameters were presented in Table 12 for MDMA and Table 13 for MDA. The data were analyzed using descriptive statistics, and the mean and standard deviation were calculated. The results were compared between the two periods and analyzed for food effects. Statistical analyses were performed using appropriate methods, such as analysis of variance (ANOVA) and paired t-tests. A p-value of less than 0.05 was considered statistically significant.

[1] = Fasted (N = 15), 120 mg MDMA·HCl, geometric mean
[2] = Fed (N = 14), 120 mg MDMA·HCl, geometric mean

With `CC(N)Cc1ccc2c(c1)OCO2` (centres unmarked) [MDA, 3,4-methylenedioxyamphetamine] the “higher plasma PK values in intermediate relative to normal CYP2D6 metabolizers” value (8 intermediate, 8 normal metabolizers) was “approximately 13%”, the “Cmax, Geometric LSM” value (Fasted) was 12.39 ng/mL and the CL/F [1] was 302.8 L/h. For the same compound, the Cmax [1] was 12 ng/mL, the Tlag [1] was 0.6 h and the Tmax (Fasted (N = 15), 120 mg MDMA·HCl) was 6 h. The “Cmax, Geometric LSM” value (Fed) was 11.92 ng/mL, the CL/F [2] was 270.7 L/h and the Cmax [2] was 12 ng/mL. The Tlag [2] was 0.7 h, the Tmax (Fed (N = 14), 120 mg MDMA·HCl) was 7 h and the Cmax (both sexes, human, plasma, po, single 120 mg dose of MDMA·HCl, fasting healthy males and females, read-out: Cmax) was 13.3 ng/mL. For the same compound, the “AUC0-72, Geometric Mean Ratio” value (fed vs fasted) was 0.98, the “AUC0-inf, Geometric Mean Ratio” value (fed vs fasted) was 0.99 and the “AUC0-t, Geometric Mean Ratio” value (fed vs fasted) was 0.90. For the same compound, the “Cmax, Geometric Mean Ratio” value (fed vs fasted) was 0.96, the “effect of food on exposure” value (high-fat meal vs fasting, single 120 mg MDMA·HCl) was “not affected by food” and the “AUC0-inf of MDA relative to MDMA” value (human, plasma, oral, 120 mg) was “less than 10%”. The “peak plasma levels of MDA relative to MDMA” value (human, plasma, oral, 120 mg) was “less than 10%”, the AUC(0-t) (human, plasma, oral, 120 mg, Fasted, read-out: AUC0-72, Geometric LSM) was 312 ng·h/mL and the AUC(0-inf) (human, plasma, oral, 120 mg, Fasted, read-out: AUC0-inf, Geometric LSM) was 331 ng·h/mL. It also gave an AUC(0-t) (human, plasma, oral, 120 mg, Fasted, read-out: AUC0-t, Geometric LSM) of 282 ng·h/mL, an AUC(0-t) (human, plasma, oral, 120 mg, Fed, read-out: AUC0-72, Geometric LSM) of 306 ng·h/mL and an AUC(0-inf) (human, plasma, oral, 120 mg, Fed, read-out: AUC0-inf, Geometric LSM) of 328 ng·h/mL. The AUC(0-t) (human, plasma, oral, 120 mg, Fed, read-out: AUC0-t, Geometric LSM) was 254 ng·h/mL, the Vd/F (human, plasma, po, 120 mg, Fasted (N = 15), 120 mg MDMA·HCl, geometric mean) was 5520 L and the AUC(0-t) (human, plasma, po, 120 mg, Fasted (N = 15), 120 mg MDMA·HCl, geometric mean, read-out: AUC0-72) was 313 ng·h/mL. The AUC(0-inf) (human, plasma, po, 120 mg, Fasted (N = 15), 120 mg MDMA·HCl, geometric mean, read-out: AUC0-inf) was 330 ng·h/mL, the AUC(0-t) (human, plasma, po, 120 mg, Fasted (N = 15), 120 mg MDMA·HCl, geometric mean, read-out: AUC0-t) was 282 ng·h/mL and the half-life (human, plasma, po, 120 mg, Fasted (N = 15), 120 mg MDMA·HCl, geometric mean, read-out: T1/2 (converted)) was 12.6 h. The Vd/F (human, plasma, po, 120 mg, Fed (N = 14), 120 mg MDMA·HCl, geometric mean) was 5000 L, the AUC(0-t) (human, plasma, po, 120 mg, Fed (N = 14), 120 mg MDMA·HCl, geometric mean, read-out: AUC0-72) was 322 ng·h/mL and the AUC(0-inf) (human, plasma, po, 120 mg, Fed (N = 14), 120 mg MDMA·HCl, geometric mean, read-out: AUC0-inf) was 369 ng·h/mL. For the same compound, the AUC(0-t) (human, plasma, po, 120 mg, Fed (N = 14), 120 mg MDMA·HCl, geometric mean, read-out: AUC0-t) was 255 ng·h/mL, the half-life (human, plasma, po, 120 mg, Fed (N = 14), 120 mg MDMA·HCl, geometric mean, read-out: T1/2 (converted)) was 12.8 h and the AUC(0-inf) (human, plasma, po, 120 mg, single 120 mg dose of MDMA·HCl, fasting, read-out: AUC0-inf) was 374 ng·h/mL. It also gave a half-life (human, plasma, po, 120 mg, single 120 mg dose of MDMA·HCl, fasting, read-out: t1/2 (converted)) of 12.8 h and a Tmax (single 120 mg dose of MDMA·HCl, fasting) of 6 h.
